In US12685312B2, “Sulfonamide apyrase inhibitors” (Texas Crop Science, Inc., priority 2022, dated 2026):

System: apyrase
Test: Screen for apyrase inhibitors (Method 1, in vitro phosphate-release absorbance assay)
Type: biochemical
Conditions: inhibitor conc at 1 mM stock, 1 hr room temperature, absorbance 630 nm; rounded average of two assay results
How it was run: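 Phosphate-release colorimetric assay (Windsor method) in 60 mM Hepes, 3 mM MgCl2, 3 mM CaCl2, 3 mM ATP, pH 6.5, with compound or DMSO control added. Released phosphate developed with ammonium molybdate and ascorbic acid/TCA, then stopped with citrate/acetic acid.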

Structure (SMILES)	% Inhibition of Apyrase
CCc1cccc(NC(=O)c2ccc(S(=O)(=O)Nc3ccc(Cl)cc3)cc2)c1 [I-395, 4-(N-(4-chlorophenyl)sulfamoyl)-N-(3-ethylphenyl)benzamide]	51%
Cc1ccc(NS(=O)(=O)c2ccc(C(=O)Nc3ccc(Cl)cc3C)cc2)cc1 [I-396, N-(4-chloro-2-methylphenyl)-4-(N-(p-tolyl)sulfamoyl)benzamide]	50%
O=C(c1ccc(S(=O)(=O)Nc2ccccc2)cc1)N1CCCc2ccccc21 [I-397, N-phenyl-4-(1,2,3,4-tetrahydroquinoline-1-carbonyl)benzenesulfonamide]	45%
CC(=O)c1cccc(NC(=O)c2ccc(S(=O)(=O)Nc3ccc(C)cc3)cc2)c1 [I-398, N-(3-acetylphenyl)-4-(N-(p-tolyl)sulfamoyl)benzamide]	44%
COc1ccc(NC(=O)c2ccc(S(=O)(=O)Nc3cccc(C(F)(F)F)c3)cc2)c(OC)c1 [I-399, N-(2,4-dimethoxyphenyl)-4-(N-(3-(trifluoromethyl)phenyl)sulfamoyl)benzamide]	43%
O=C(Nc1ccc(F)cc1)c1ccc(S(=O)(=O)Nc2ccccc2Cl)cc1 [I-400, 4-(N-(2-chlorophenyl)sulfamoyl)-N-(4-fluorophenyl)benzamide]	41%
O=C(Nc1ccc2c(c1)OCO2)c1ccc(S(=O)(=O)Nc2ccccc2F)cc1 [I-401, N-(benzo[d][1,3]dioxol-5-yl)-4-(N-(2-fluorophenyl)sulfamoyl)benzamide]	41%
COc1ccc(NC(=O)c2ccc(S(=O)(=O)Nc3ccccc3)cc2)cc1 [I-402, N-(4-methoxyphenyl)-4-(N-phenylsulfamoyl)benzamide]	40%
COc1ccc(NC(=O)c2ccc(S(=O)(=O)Nc3cccc(C(F)(F)F)c3)cc2)cc1OC [I-403, N-(3,4-dimethoxyphenyl)-4-(N-(3-(trifluoromethyl)phenyl)sulfamoyl)benzamide]	38%
Cc1ccccc1NS(=O)(=O)c1ccc(C(=O)Nc2cccc([N+](=O)[O-])c2C)cc1 [I-404, N-(2-methyl-3-nitrophenyl)-4-(N-(o-tolyl)sulfamoyl)benzamide]	38%
O=C(Nc1ccccc1OC(F)F)c1ccc(S(=O)(=O)Nc2ccccc2)cc1 [I-405, N-(2-(difluoromethoxy)phenyl)-4-(N-phenylsulfamoyl)benzamide]	35%
N#Cc1cccc(NC(=O)c2ccc(S(=O)(=O)Nc3ccccc3F)cc2)c1 [I-406, N-(3-cyanophenyl)-4-(N-(2-fluorophenyl)sulfamoyl)benzamide]	30%
O=C(Nc1cccc(C(F)(F)F)c1)c1ccc(S(=O)(=O)Nc2ccccc2F)cc1 [I-407, 4-(N-(2-fluorophenyl)sulfamoyl)-N-(3-(trifluoromethyl)phenyl)benzamide]	30%
COc1ccc(NC(=O)c2ccc(S(=O)(=O)Nc3ccc(F)cc3)cc2)cc1 [I-408, 4-(N-(4-fluorophenyl)sulfamoyl)-N-(4-methoxyphenyl)benzamide]	30%
COc1ccccc1NS(=O)(=O)c1ccc(C(=O)Nc2ccc3c(c2)OCO3)cc1 [I-409, N-(benzo[d][1,3]dioxol-5-yl)-4-(N-(2-methoxyphenyl)sulfamoyl)benzamide]	30%
COc1ccccc1NS(=O)(=O)c1ccc(C(=O)Nc2cccc(C(F)(F)F)c2)cc1 [I-410, 4-(N-(2-methoxyphenyl)sulfamoyl)-N-(3-(trifluoromethyl)phenyl)benzamide]	29%
Cc1ccccc1NS(=O)(=O)c1ccc(C(=O)Nc2ccc(Cl)cc2)cc1 [I-411, N-(4-chlorophenyl)-4-(N-(o-tolyl)sulfamoyl)benzamide]	21%
COc1ccc([N+](=O)[O-])cc1NS(=O)(=O)c1ccc(C(=O)Nc2ccc(F)cc2F)cc1 [I-412, N-(2,4-difluorophenyl)-4-(N-(2-methoxy-5-nitrophenyl)sulfamoyl)benzamide]	18%
COc1ccc(NS(=O)(=O)c2ccc(C(=O)Nc3cccc(C(C)=O)c3)cc2)cc1 [I-413, N-(3-acetylphenyl)-4-(N-(4-methoxyphenyl)sulfamoyl)benzamide]	16%
COc1ccc([N+](=O)[O-])cc1NS(=O)(=O)c1cccc(C(=O)Nc2ccc(F)c([N+](=O)[O-])c2)c1 [I-430, N-(4-fluoro-3-nitrophenyl)-3-(N-(2-methoxy-5-nitrophenyl)sulfamoyl)benzamide]	72%
O=C(c1ccc(Cl)c(S(=O)(=O)N2CCc3ccccc32)c1)N1CCc2ccccc21 [I-448, (4-chloro-3-(indolin-1-ylsulfonyl)phenyl)(indolin-1-yl)methanone]	61%

Further lines, results first:

% Inhibition of Apyrase	Structure (SMILES)
15%	COc1ccccc1NS(=O)(=O)c1ccc(C(=O)Nc2ccc(F)c([N+](=O)[O-])c2)cc1 [I-414, N-(4-fluoro-3-nitrophenyl)-4-(N-(2-methoxyphenyl)sulfamoyl)benzamide]
13%	O=C(Nc1ccc2c(c1)OCCCO2)c1ccc(S(=O)(=O)Nc2ccc(F)cc2)cc1 [I-415, N-(3,4-dihydro-2H-benzo[b][1,4]dioxepin-7-yl)-4-(N-(4-fluorophenyl)sulfamoyl)benzamide]
13%	COc1ccc(NS(=O)(=O)c2ccc(C(=O)Nc3ccc(F)cc3C)cc2)cc1 [I-416, N-(4-fluoro-2-methylphenyl)-4-(N-(4-methoxyphenyl)sulfamoyl)benzamide]
73%	COc1ccc(OC)c(NC(=O)c2cccc(S(=O)(=O)N3c4ccccc4CC3C)c2)c1 (stereo not shown) [I-429, N-(2,5-dimethoxyphenyl)-3-((2-methylindolin-1-yl)sulfonyl)benzamide]
68%	CCOC(=O)c1sc(NC(=O)c2cccc(S(=O)(=O)Nc3ccc(F)cc3)c2)cc1C [I-431, ethyl 5-(3-(N-(4-fluorophenyl)sulfamoyl)benzamido)-3-methylthiophene-2-carboxylate]
66%	CCOC(=O)c1sc(NC(=O)c2cccc(S(=O)(=O)Nc3ccccc3F)c2)cc1C [I-432, ethyl 5-(3-(N-(2-fluorophenyl)sulfamoyl)benzamido)-3-methylthiophene-2-carboxylate]
65%	Cc1cc(Cl)ccc1NC(=O)c1ccc(Cl)c(S(=O)(=O)Nc2ccc(Cl)cc2C)c1 [I-433, 4-chloro-N-(4-chloro-2-methylphenyl)-3-(N-(4-chloro-2-methylphenyl)sulfamoyl)benzamide]
65%	CCOc1ccccc1NC(=O)c1ccc(Cl)c(S(=O)(=O)N2CCc3ccccc32)c1 [I-434, 4-chloro-N-(2-ethoxyphenyl)-3-(indolin-1-ylsulfonyl)benzamide]
64%	COc1ccc(NS(=O)(=O)c2cccc(C(=O)N3c4ccccc4CC3C)c2)cc1 (stereo not shown) [I-435, N-(4-methoxyphenyl)-3-(2-methylindoline-1-carbonyl)benzenesulfonamide]
64%	COc1ccc(S(=O)(=O)N2CCc3ccccc32)cc1C(=O)Nc1ccccc1C [I-436, 5-(indolin-1-ylsulfonyl)-2-methoxy-N-(o-tolyl)benzamide]
64%	CC1CCc2c(sc(NC(=O)c3cccc(S(=O)(=O)Nc4ccccc4Cl)c3)c2C#N)C1 (stereo not shown) [I-437, 3-(N-(2-chlorophenyl)sulfamoyl)-N-(3-cyano-6-methyl-4,5,6,7-tetrahydrobenzo[b]thiophen-2-yl)benzamide]
63%	Cc1cccc(NS(=O)(=O)c2cc(C(=O)N3CCCc4ccccc43)ccc2C)c1 [I-438, 2-methyl-5-(1,2,3,4-tetrahydroquinoline-1-carbonyl)-N-(m-tolyl)benzenesulfonamide]
63%	Nc1c(Cl)cc(NC(=O)c2cccc(S(=O)(=O)N3CCc4ccccc43)c2)cc1Cl [I-439, N-(4-amino-3,5-dichlorophenyl)-3-(indolin-1-ylsulfonyl)benzamide]
62%	COc1ccc(S(=O)(=O)N2CCc3ccccc32)cc1C(=O)Nc1ccc(OC(F)F)c(Cl)c1 [I-440, N-(3-chloro-4-(difluoromethoxy)phenyl)-5-(indolin-1-ylsulfonyl)-2-methoxybenzamide]
62%	O=C(c1cccc(S(=O)(=O)Nc2cccc(C(F)(F)F)c2)c1)N1CCCc2ccccc21 [I-441, 3-(1,2,3,4-tetrahydroquinoline-1-carbonyl)-N-(3-(trifluoromethyl)phenyl)benzenesulfonamide]
61%	COc1ccc(S(=O)(=O)N2CCc3ccccc32)cc1C(=O)Nc1cccc(C#N)c1 [I-442, N-(3-cyanophenyl)-5-(indolin-1-ylsulfonyl)-2-methoxybenzamide]
61%	O=C(Nc1cccc(F)c1)c1cccc(S(=O)(=O)N2CCc3ccccc32)c1 [I-443, N-(3-fluorophenyl)-3-(indolin-1-ylsulfonyl)benzamide]
61%	O=C(Nc1cccc2cccnc12)c1cccc(S(=O)(=O)N2CCc3ccccc32)c1 [I-444, 3-(indolin-1-ylsulfonyl)-N-(quinolin-8-yl)benzamide]
61%	CCc1ccccc1NC(=O)c1cccc(S(=O)(=O)N2c3ccccc3CC2C)c1 (stereo not shown) [I-445, N-(2-ethylphenyl)-3-((2-methylindolin-1-yl)sulfonyl)benzamide]
61%	O=C(Nc1cccc(S(=O)(=O)N2CCCCC2)c1)c1cccc(S(=O)(=O)N2CCc3ccccc32)c1 [I-446, 3-(indolin-1-ylsulfonyl)-N-(3-(piperidin-1-ylsulfonyl)phenyl)benzamide]
61%	COc1ccc(S(=O)(=O)N2CCc3ccccc32)cc1C(=O)Nc1cc(C(F)(F)F)cc(C(F)(F)F)c1 [I-447, N-(3,5-bis(trifluoromethyl)phenyl)-5-(indolin-1-ylsulfonyl)-2-methoxybenzamide]
61%	COc1ccc(NC(=O)c2cccc(S(=O)(=O)N3c4ccccc4CC3C)c2)cc1OC (stereo not shown) [I-449, N-(3,4-dimethoxyphenyl)-3-((2-methylindolin-1-yl)sulfonyl)benzamide]
